{"source": "patent US11331364B2", "about": "“Use for JNK inhibitor molecules for treatment of various diseases” (Xigen Inflammation Ltd., priority 2014, dated 2022)", "key": {"human whole blood": {"system": "human whole blood", "assay": "PMA+ionomycin-induced cytokine release in human whole blood", "assay_type": "cell-based", "details": "1, 3, 10 μM; 4 hours", "procedure": "FIG. 19 JNK inhibition and IL-2 release in human whole blood. The JNK inhibitor with SEQ ID NO: 172 was added at three different concentrations, namely 1, 3 and 10 μM 1 h before whole blood stimulation with PMA+ionomycin (25/700 ng/mL, 50/800 ng/mL and 50/1000 ng/mL) for 4 hours.\nFIG. 20 JNK inhibition and IFN-γ release in human whole blood. The JNK inhibitor with SEQ ID NO: 172 was added at three different concentrations, namely 1, 3 and 10 μM 1 h before whole blood stimulation with PMA+ionomycin (25/700 ng/mL, 50/800 ng/mL and 50/1000 ng/mL) for 4 hours.\nFIG. 21 JNK inhibition and TNF-α release in human whole blood. The JNK inhibitor with SEQ ID NO: 172 was added at three different concentrations, namely 1, 3 and 10 μM 1 h before whole blood stimulation with PMA+ionomycin (25/700 ng/mL, 50/800 ng/ml and 50/1000 ng/mL) for 4 hours.\nWhole blood is collected from anesthetized rat or human healthy volunteers using a venipuncture connected to a pre-labeled vacuum tube containing sodium citrate. Tubes are gently mixed by inversion 7-8 times; and are then kept at RT until stimulation. JNK inhibitor of SEQ ID NO: 172 is prepared 6 times concentrated in PBS, and 30 μl/well of mix is added into 96-well plate. Whole blood is diluted by 1:2 in PBS and 120 μl of diluted blood is added in each well where either PBS alone or JNK inhibitor of SEQ ID NO: 172 has been previously added. Whole blood is incubated at 37° C.; 85 rpm (Stuart Orbital incubator SI500) for 60 min. Activators (LPS) are the prepared, 30 μl/well of LPS, 6 times concentrated. After 60 min incubation, LPS is added to the blood, blood is mixed by pipetting up and down, and then kept for 4 h under agitation (85 rpm), at 37° C. After the 4 h incubation, the plates are centrifuged at about 770 g, 4° C. for 15 min in a pre-cooled centrifuge. […] Cytokine (IL-6, IL-2, IFNγ and TNFα) were then measured using standard Elisa kits (e.g. from R&D Systems: DuoSet Elisas; or from BD Biosciences: BD Opteia Set Elisa). Results are expressed as pg/ml of supernatant of the measured cytokine. […]"}, "healthy male volunteers": {"system": "healthy male volunteers", "assay": "Phase I safety and tolerability of single and repeated instillations", "assay_type": "in vivo, human", "procedure": "XG-104 was prepared as solution for instillations (in NaCl 0.9%). NaCl 0.9% served as placebo. A total of 49 subjects were included in this study, 28 in the “Single dose part” of this study and 21 in the “Multiple dose part” of this study. In the single dose part, the 28 subjects included were randomised between one of the 5 groups: 5 subjects in each of the 4 XG-104 groups (0.1 mg, 0.2 mg, 0.4 mg, 0.8 mg) (0.2, 0.4, 0.8 and 1.6%, respectively) and 8 subjects in the placebo group. In the multiple dose part, the 21 subjects included were randomised between one of the 4 groups: 5 subjects in each of the 3 XG-104 groups (0.1 mg, 0.2 mg, 0.4 mg) and 6 subjects in the placebo group. All subjects completed the study.\nIn the “Single dose part” of this study, single topical doses of 0.1, 0.2, 0.4 and 0.8 mg (0.2, 0.4, 0.8 and 1.6%, respectively) of XG-104 were tested. A single administration of XG-104 or placebo was performed on day 1 (D1) (one drop in the right eye). In the single dose part, subjects were hospitalized for approximately 36 h, namely from day −1 (D−1) evening to D2 morning. On day 3 an ambulatory visit was performed and the study ended with a visit at D4.\nIn the “Multiple dose part” of this study, three dose levels were tested. Doses were chosen according to the results of the single dose part as follows: first group: 0.1 mg (0.2%), second group: 0.2 mg (0.4%), and third group: 0.4 mg (0.8%). XG-104 or placebo was administered tid (“ter in die”—three times daily), each time 1 drop in the right eye, from D1 to D21. The administration took place at around 8 a.m., 12 a.m. and 8 p.m. In the multiple dose part, subjects were hospitalized from D−1 evening to D22 morning, whereby the end of the study was a visit at D36 (±2). For more flexibility, subjects had the possibility to perform some visits in ambulatory. In that case visits were the following: hospitalization for approximately 36 h, D−1 evening to D2 morning, ambulatory visits from D2 to D7, hospitalization for approximately 36 h, D7 evening to D9 morning, ambulatory visits from D9 to D14, hospitalization for approximately 36 h, D14 evening to D16 morning, ambulatory visits from D16 to D20, and hospitalization for approximately 36 h, D20 evening to D22 morning. The end of the study was a visit at D36 (±2), accordingly.\nThe safety parameters evaluated included: physical examination; vital signs (BP, PR); 12-lead ECG (electrocardiogram); fundus of the eye, intraocular pressure, slit lamp examination, best-corrected visual acuity, redness; Schirmer's tear test, TBUT (tear film break-up time); clinical laboratory tests (haematology, haemostasis, clinical chemistry and urinalysis); adverse events; and assessment of tolerability."}, "[1]": {"details": "multiple dose 0.1 mg (0.2%) tid"}, "[2]": {"details": "multiple dose 0.2 mg (0.4%) tid"}, "[3]": {"details": "multiple dose 0.4 mg (0.8%) tid"}}, "note": "Square brackets hold non-standard residues; d marks the D form. Peptide text beside a SMILES is read from it.", "data": [{"smiles": "CC(C)C[C@H](NC(=O)[C@H](CC(N)=O)NC(=O)[C@H](CC(C)C)NC(=O)[C@@H](NC(=O)[C@@H](C)NC(=O)[C@@H]1CCCN1C(=O)[C@H](CCCNC(=N)N)NC(=O)[C@@H](CCCCN)NC(=O)[C@@H]1CCCN1C(=O)[C@H](CCCNC(=N)N)NC(=O)[C@@H](CCCNC(=N)N)NC(=O)[C@H](CCCNC(=N)N)NC(=O)[C@H](CCCNC(=N)N)NC(=O)[C@H](CCC(N)=O)NC(=O)[C@@H](CCCNC(=N)N)NC(=O)[C@H](CCCNC(=N)N)NC(=O)[C@H](CCCCN)NC(=O)[C@H](CCCCN)NC(=O)[C@H](N)CCCNC(=N)N)[C@@H](C)O)C(=O)N[C@H](Cc1ccccc1)C(N)=O", "note": "[SEQ ID NO: 172, rKKRrQRRrRPkRPaTLNLf] (H-[dR]KKR[dR]QRR[dR]RP[dK]RP[dA]TLNL[dF]-NH2; N-terminus assumed)", "values": [{"measurement": "PMA+ionomycin-induced IFN-γ release", "setting": "human whole blood", "value": "did reduce the PMA+ionomycin-induced IFN-γ release in a dose-dependent manner"}, {"measurement": "PMA+ionomycin-induced IL-2 release", "setting": "human whole blood", "value": "did reduce the PMA+ionomycin-induced IL-2 release in a dose-dependent manner"}, {"measurement": "PMA+ionomycin-induced TNF-α release", "setting": "human whole blood", "value": "did reduce the PMA+ionomycin-induced TNF-α release in a dose-dependent manner"}, {"measurement": "conjunctival hyperaemia, left eye, unlikely related (number)", "setting": "healthy male volunteers; [1]", "value": 2}, {"measurement": "conjunctival hyperaemia, right eye, unlikely related (number)", "setting": "healthy male volunteers; [1]", "value": 6}, {"measurement": "conjunctivas, right eye, probably related (number)", "setting": "healthy male volunteers; [1]", "value": 2}, {"measurement": "punctate keratitis, left eye, unlikely related (number)", "setting": "healthy male volunteers; [1]", "value": 2}, {"measurement": "punctate keratitis, left eye, unrelated (number)", "setting": "healthy male volunteers; [1]", "value": 1}, {"measurement": "punctate keratitis, right eye, unlikely related (number)", "setting": "healthy male volunteers; [1]", "value": 6}, {"measurement": "conjunctival hyperaemia, left eye, unlikely related (number)", "setting": "healthy male volunteers; [2]", "value": 3}, {"measurement": "conjunctival hyperaemia, right eye, unlikely related (number)", "setting": "healthy male volunteers; [2]", "value": 5}, {"measurement": "eyelid irritation, right eye, probably related (number)", "setting": "healthy male volunteers; [2]", "value": 1}, {"measurement": "punctate keratitis, left eye, unlikely related (number)", "setting": "healthy male volunteers; [2]", "value": 1}, {"measurement": "punctate keratitis, left eye, unrelated (number)", "setting": "healthy male volunteers; [2]", "value": 4}, {"measurement": "punctate keratitis, right eye, unlikely related (number)", "setting": "healthy male volunteers; [2]", "value": 6}, {"measurement": "punctate keratitis, right eye, unrelated (number)", "setting": "healthy male volunteers; [2]", "value": 1}, {"measurement": "conjunctival hyperaemia, left eye, unlikely related (number)", "setting": "healthy male volunteers; [3]", "value": 2}, {"measurement": "conjunctival hyperaemia, right eye, unlikely related (number)", "setting": "healthy male volunteers; [3]", "value": 10}, {"measurement": "conjunctivitis, right eye, unlikely related (number)", "setting": "healthy male volunteers; [3]", "value": 1}, {"measurement": "punctate keratitis, left eye, unlikely related (number)", "setting": "healthy male volunteers; [3]", "value": 2}, {"measurement": "punctate keratitis, right eye, unlikely related (number)", "setting": "healthy male volunteers; [3]", "value": 5}, {"measurement": "clinical examination, biological parameters, vital signs or ECG parameters", "setting": "healthy male volunteers; multiple dose part", "value": "No clinically relevant findings"}, {"measurement": "intensity of TEAEs", "setting": "healthy male volunteers; multiple dose part", "value": "mild to moderate"}, {"measurement": "serious adverse events", "setting": "healthy male volunteers; multiple dose part", "value": "No serious adverse events"}, {"measurement": "TEAEs experienced after XG-104 administration (number)", "setting": "healthy male volunteers; multiple dose part, tid D1 to D21, 0.1-0.4 mg", "value": 61}, {"measurement": "tolerability", "setting": "healthy male volunteers; repeated dose t.i.d. 0.1 mg, 0.2 mg, 0.4 mg", "value": "well tolerated"}, {"measurement": "eye pruritus, right eye, unrelated (number)", "setting": "healthy male volunteers; single dose 0.1 mg (0.2%)", "value": 1}, {"measurement": "punctate keratitis, right eye, unrelated (number)", "setting": "healthy male volunteers; single dose 0.1 mg (0.2%)", "value": 2}, {"measurement": "tolerability", "setting": "healthy male volunteers; single dose 0.1 mg, 0.2 mg, 0.4 mg", "value": "well tolerated"}, {"measurement": "conjunctival hyperaemia, right eye, unrelated (number)", "setting": "healthy male volunteers; single dose 0.2 mg (0.4%)", "value": 1}, {"measurement": "punctate keratitis, right eye, unrelated (number)", "setting": "healthy male volunteers; single dose 0.2 mg (0.4%)", "value": 2}, {"measurement": "punctate keratitis, right eye, unrelated (number)", "setting": "healthy male volunteers; single dose 0.4 mg (0.8%)", "value": 2}, {"measurement": "TEAEs right eye probably related to study drug (number)", "setting": "healthy male volunteers; single dose 0.8 mg (1.6%)", "value": 3}, {"measurement": "conjunctival hyperaemia, right eye, probably related (number)", "setting": "healthy male volunteers; single dose 0.8 mg (1.6%)", "value": 1}, {"measurement": "conjunctivitis, right eye, probably related (number)", "setting": "healthy male volunteers; single dose 0.8 mg (1.6%)", "value": 2}, {"measurement": "punctate keratitis, right eye, unrelated (number)", "setting": "healthy male volunteers; single dose 0.8 mg (1.6%)", "value": 1}, {"measurement": "tolerability", "setting": "healthy male volunteers; single dose 0.8 mg (1.6%)", "value": "rather well tolerated"}, {"measurement": "clinical examination, vital signs or ECG parameters", "setting": "healthy male volunteers; single dose part", "value": "No clinically relevant findings"}, {"measurement": "intensity of TEAEs", "setting": "healthy male volunteers; single dose part", "value": "mild"}, {"measurement": "serious adverse events", "setting": "healthy male volunteers; single dose part", "value": "No serious adverse events"}, {"measurement": "TEAEs experienced after XG-104 administration (number)", "setting": "healthy male volunteers; single dose part, 0.1-0.8 mg, one drop right eye", "value": 21}]}]}
